Data published in US20040224958A1, “Pyridopyrimidinone derivatives for treatment of neurodegenerative disease” (priority 2000, published 2004).

Experiments:
Cdk5/p25 = Cdk5/p25 (Homo sapiens, UniProt Q00535); test: Cyclin-Dependent Kinase 5 High Throughput Screening (cdk5-HTS) Assay; assay type: biochemical; details: high throughput screen
How it was run: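 Cdk5/p25 (1.0 μg/mL) phosphorylates GST-RbCOOH (20 μg/mL) in 50 mM Tris pH 7.4 with 10 mM MgCl2 and 20 μM ATP spiked with [γ33P]ATP, 30 min at room temperature. After EDTA stop, substrate captured on glutathione-coated plates; 33P incorporation counted by scintillation; IC50 determined.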

cdk2/cyclinA = cdk2/cyclinA (Homo sapiens, UniProt P24941); test: Cyclin-Dependent Kinase Assay cdk2/cyclinA; details: cdk2/A IC50
cdk2/cyclinE = cdk2/cyclinE (Homo sapiens, UniProt P24941); test: Cyclin-Dependent Kinase Assay cdk2/cyclinE; details: cdk2/E IC50
cdc2/cyclinB = cdc2/cyclinB (Homo sapiens, UniProt P06493); test: Cyclin-Dependent Kinase Assay cdc2/cyclinB
Chain of cdc2/cyclinB (P06493 whole entry): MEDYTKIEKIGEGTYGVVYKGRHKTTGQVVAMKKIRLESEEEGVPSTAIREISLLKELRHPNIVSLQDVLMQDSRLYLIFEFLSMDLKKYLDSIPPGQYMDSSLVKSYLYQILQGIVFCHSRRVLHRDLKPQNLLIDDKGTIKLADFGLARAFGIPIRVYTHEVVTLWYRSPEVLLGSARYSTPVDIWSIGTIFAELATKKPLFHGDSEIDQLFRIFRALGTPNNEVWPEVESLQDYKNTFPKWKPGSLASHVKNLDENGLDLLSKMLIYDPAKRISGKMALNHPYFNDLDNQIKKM
Chain of cdc2/cyclinB (P14635 whole entry, further chain): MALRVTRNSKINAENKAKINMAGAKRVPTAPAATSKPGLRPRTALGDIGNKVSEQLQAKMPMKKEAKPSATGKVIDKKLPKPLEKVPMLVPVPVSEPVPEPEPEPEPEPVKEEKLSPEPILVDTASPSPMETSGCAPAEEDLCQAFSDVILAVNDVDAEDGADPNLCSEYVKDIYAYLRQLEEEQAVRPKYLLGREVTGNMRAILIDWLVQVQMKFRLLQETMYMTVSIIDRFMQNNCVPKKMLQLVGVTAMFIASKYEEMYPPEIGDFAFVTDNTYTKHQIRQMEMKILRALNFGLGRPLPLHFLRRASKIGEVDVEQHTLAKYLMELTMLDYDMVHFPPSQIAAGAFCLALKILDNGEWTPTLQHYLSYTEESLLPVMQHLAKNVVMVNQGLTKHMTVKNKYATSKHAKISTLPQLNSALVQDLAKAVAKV
Protocol: Cyclin-Dependent Kinase Assays (cdk2/cyclinE, cdk2/cyclinA, cdc2/cyclinB)
All components except the ATP were added to the wells, and the plate was placed on a plate mixer for 2 minutes. The reaction was begun by addition of [^32P]ATP, and the plate was incubated at 25° C. for 15 minutes. The reaction was terminated by addition of 0.1 mL of 20% TCA. The plate was kept at 4° C. for at least 1 hour to allow the substrate to precipitate. The wells were then washed five times with 0.2 mL of 10% TCA and ^32p incorporation determined with a beta plate counter (Wallac Inc., Gaithersburg, Md.).

cdk4/D = cdk4/D (Homo sapiens, UniProt P11802); test: Cyclin-Dependent Kinase 4 (cdk4) Assay; assay type: biochemical; details: read-out: cdk4/D IC50
Chain of cdk4/D (P11802 whole entry): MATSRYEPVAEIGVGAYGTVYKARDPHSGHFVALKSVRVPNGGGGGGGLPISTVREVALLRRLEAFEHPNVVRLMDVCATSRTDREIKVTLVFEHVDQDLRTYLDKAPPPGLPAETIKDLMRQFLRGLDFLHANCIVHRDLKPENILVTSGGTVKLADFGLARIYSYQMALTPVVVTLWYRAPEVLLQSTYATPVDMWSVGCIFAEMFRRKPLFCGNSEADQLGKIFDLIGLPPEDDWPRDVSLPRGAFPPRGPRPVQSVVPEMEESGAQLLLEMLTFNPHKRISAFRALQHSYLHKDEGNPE
Chain of cdk4/D (P24385 whole entry, further chain): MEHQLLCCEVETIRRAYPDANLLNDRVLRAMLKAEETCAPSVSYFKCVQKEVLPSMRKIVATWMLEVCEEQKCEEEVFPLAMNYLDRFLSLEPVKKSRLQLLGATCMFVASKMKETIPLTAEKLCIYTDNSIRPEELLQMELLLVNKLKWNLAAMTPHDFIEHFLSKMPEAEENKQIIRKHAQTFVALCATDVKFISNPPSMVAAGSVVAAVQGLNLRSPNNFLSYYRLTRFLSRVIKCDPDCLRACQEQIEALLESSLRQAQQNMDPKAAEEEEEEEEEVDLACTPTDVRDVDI

Structure (SMILES)	IC50 (Cdk5/p25)	IC50 (cdk2/cyclinA)	IC50 (cdk2/cyclinE)	IC50 (cdc2/cyclinB)	IC50 (cdk4/D)
CCCn1c(=O)ccc2cnc(Nc3ccc(C)c(F)c3)nc21 [Example 376, 2-(3-Fluoro-4-methyl-phenylamino)-8-propyl-8H-pyrido[2,3-d]pyrimidin-7-one]	131 nM	1180 nM	400 nM	275 nM	380 nM
CCC(C)n1c(=O)ccc2cnc(Nc3ccc(Cl)c(C(F)(F)F)c3)nc21 (stereo not shown) [Example 468, 8-sec-Butyl-2-(4-chloro-3-trifluoromethyl-phenylamino)-8H-pyrido[2,3-d]pyrimidin-7-one]	26.5 nM	530 nM	330 nM	340 nM	950 nM
CC1Nc2ccc(Nc3ncc4ccc(=O)n(CC5CC5)c4n3)cc2C1C (stereo not shown) [Example 580, 8-Cyclopropylmethyl-2-(2,3-dimethyl-2,3-dihydro-1H-indol-5ylamino)-8H-pyrido[2,3-d]pyrimidin-7-one]	130 nM	270 nM	130 nM	79 nM	550 nM
CCCn1c(=O)ccc2cnc(Nc3cccc(I)c3)nc21 [Example 316, 2-(3-Iodo-phenylamino)-8-propyl-8H-pyrido[2,3-d]pyrimidin-7-one]	56.6 nM	296 nM	62.5 nM	92.4 nM	492 nM
O=c1ccc2cnc(Nc3ccc4[nH]ccc4c3)nc2n1C1CCCC1 [Example 528, 8-Cyclopentyl-2-(1H-indol-5-ylamino)-8H-pyrido[2,3-d]pyrimidin-7-one]	36.3 nM	74 nM	46.5 nM	34.5 nM	12.7 nM
CCCn1c(=O)ccc2cnc(Nc3cccc(S(N)(=O)=O)c3)nc21 [Example 348, 3-(7-Oxo-8-propyl-7,8-dihydro-pyrido[2,3-d]pyrimidin-2-ylamino)-benzenesulfonamide]	13 nM	170 nM	49 nM	62 nM	14 nM
CCC(CC)n1c(=O)ccc2cnc(Nc3ccc4cn[nH]c4c3)nc21 [Example 518, 8-(1-Ethyl-propyl)-2-(1H-indazol-6-ylamino)-8H-pyrido[2,3-d]pyrimidin-7-one]	17.5 nM	57.5 nM	53 nM	31.5 nM	365 nM
CCCn1c(=O)ccc2cnc(Nc3ccc(F)c([N+](=O)[O-])c3)nc21 [Example 351, 2-(4-Fluoro-3-nitro-phenylamino)-8-propyl-8H-pyrido[2,3-d]pyrimidin-7-one]	310 nM	1300 nM	560 nM	700 nM	1200 nM
CCC(CC)n1c(=O)ccc2cnc(Nc3cccc(I)c3)nc21 [Example 490, 8-(1-Ethyl-propyl)-2-(3-iodo-phenylamino)-8H-pyrido[2,3-d]pyrimidin-7-one]	49.2 nM	753 nM	79.7 nM	86.7 nM	350 nM
CCCCn1c(=O)ccc2cnc(Nc3ccc(O)cc3F)nc21 [Example 382, 8-Butyl-2-(2-fluoro-4-hydroxy-phenylamino)-8H-pyrido[2,3-d]pyrimidin-7-one]	590 nM	1550 nM	320 nM	1300 nM	670 nM
CC(C)n1c(=O)ccc2cnc(Nc3ccc(OC(F)(F)F)cc3)nc21 [Example 444, 8-Isopropyl-2-(4-trifluoromethoxy-phenylamino)-8H-pyrido[2,3-d]pyrimidin-7-one]	63 nM	75 nM	710 nM	530 nM	360 nM
O=c1ccc2cnc(Nc3cc(F)cc(F)c3)nc2n1CC1CC1 [Example 575, 8-Cyclopropylmethyl-2-(3,5-difluoro-phenylamino)-8H-pyrido[2,3-d]pyrimidin-7-one]	230 nM	330 nM	280 nM	330 nM	540 nM
CC(C)n1c(=O)ccc2cnc(Nc3ccc(Cl)c(C(F)(F)F)c3)nc21 [Example 421, 2-(4-Chloro-3-trifluoromethyl-phenylamino)-8-isopropyl-8H-pyrido[2,3-d]pyrimidin-7-one]	83 nM	920 nM	3900 nM	700 nM	1900 nM
Cc1cc(Nc2ncc3ccc(=O)n(C4CCCC4)c3n2)cc(C)c1O [Example 559, 8-Cyclopentyl-2-(4-hydroxy-3,5-dimethyl-phenylamino)-8H-pyrido[2,3-d]pyrimidin-7-one]	94 nM	87 nM	91 nM	82 nM	270 nM
CCCCn1c(=O)ccc2cnc(Nc3cccc(S(N)(=O)=O)c3)nc21 [Example 402, 3-(8-Butyl-7-oxo-7,8-dihydro-pyrido[2,3-d]pyrimidin-2-ylamino)-benzenesulfonamide]	20 nM	140 nM	25 nM	58 nM	87 nM
CCCn1c(=O)ccc2cnc(Nc3ccc([N+](=O)[O-])cc3F)nc21 [Example 320, 2-(2-Fluoro-4-nitro-phenylamino)-8-propyl-8H-pyrido[2,3-d]pyrimidin-7-one]	375 nM	2640 nM	451 nM	669 nM	1650 nM
Cc1ccc(Nc2ncc3ccc(=O)n(C(C)C)c3n2)cc1I [Example 427, 2-(3-Iodo-4-methyl-phenylamino)-8-isopropyl-8H-pyrido[2,3-d]pyrimidin-7-one]	21 nM	590 nM	160 nM	160 nM	140 nM
CCCCn1c(=O)ccc2cnc(Nc3ccc(N(C)C(C)=O)cc3)nc21 [Example 370, N-[4-(8-Butyl-7-oxo-7,8-dihydro-pyrido[2,3-d]pyrimidin-2-ylamino)-phenyl]-N-methyl-acetamide]	917 nM	610 nM	1280 nM	808 nM	1140 nM
CC(C)n1c(=O)ccc2cnc(Nc3ccc(C#N)cc3)nc21 [Example 433, 4-(8-Isopropyl-7-oxo-7,8-dihydro-pyrido[2,3-d]pyrimidin-2-ylamino)-benzonitrile]	76 nM	160 nM	230 nM	480 nM	250 nM
COc1cc(Nc2ncc3ccc(=O)n(C(C)C)c3n2)cc(C(F)(F)F)c1 [Example 425, 8-Isopropyl-2-(3-methoxy-5-trifluoromethyl-phenylamino)-8H-pyrido[2,3-d]pyrimidin-7-one]	180 nM	1800 nM	770 nM	490 nM	850 nM
Cn1c(=O)ccc2cnc(Nc3ccccc3)nc21 [Example 285, 8-Methyl-2-phenylamino-81H-pyrido[2,3-d]pyrimidin-7-one]	255 nM	2800 nM	2270 nM	865 nM	2750 nM
O=c1ccc2cnc(Nc3ccc(O)c(CN4CCOCC4)c3)nc2n1C1CCCC1 [Example 550, 8-Cyclopentyl-2-(4-hydroxy-3-morpholin-4-ylmethyl-phenylamino)-8H-pyrido[2,3-d]pyrimidin-7-one]	190 nM	200 nM	110 nM	510 nM	310 nM
CCC(CC)n1c(=O)ccc2cnc(Nc3ccc4c(c3)CCC4)nc21 [Example 525, 8-(I-Ethyl-propyl)-2-(indan-5-ylamino)-8H-pyrido[2,3-d]pyrimidin-7-one]	27 nM	290 nM	110 nM	99 nM	1200 nM
CCCCn1c(=O)ccc2cnc(Nc3ccc(OC)c(Cl)c3)nc21 [Example 365, 8-Butyl-2-(3-chloro-4-methoxy-phenylamino)-8H-pyrido[2,3-d]pyrimidin-7-one]	59.8 nM	446 nM	122 nM	204 nM	475 nM
CCC(C)n1c(=O)ccc2cnc(Nc3ccc(Cl)c(C)c3)nc21 (stereo not shown) [Example 456, 8-sec-Butyl-2-(4-chloro-3-methyl-phenylamino)-8H-pyrido[2,3-d]pyrimidin-7-one]	25 nM	310 nM	110 nM	130 nM	130 nM
CCC(CC)n1c(=O)ccc2cnc(Nc3cccc(C(F)(F)F)c3)nc21 [Example 487, 8-(1-Ethyl-propyl)-2-(3-trifluoromethyl-phenylamino)-8H-pyrido[2,3-d]pyrimidin-7-one]	76.8 nM	728 nM	210 nM	177 nM	692 nM
CCCn1c(=O)ccc2cnc(Nc3cc(C)cc(C)c3)nc21 [Example 346, 2-(3,5-Dimethyl-phenylamino)-8-propyl-8H-pyrido[2,3-d]pyrimidin-7-one]	29 nM	450 nM	260 nM	61 nM	310 nM
CCC(CC)n1c(=O)ccc2cnc(Nc3cc(F)cc(F)c3)nc21 [Example 510, 2-(3,5-Difluoro-phenylamino)-8-(1-ethyl-propyl)-8H-pyrido[2,3-d]pyrimidin-7-one]	120 nM	310 nM	210 nM	180 nM	270 nM
O=c1ccc2cnc(Nc3cc(Cl)c(O)c(Cl)c3)nc2n1C1CCCC1 [Example 540, 8-Cyclopentyl-2-(3,5-dichloro-4-hydroxy-phenylamino)-8H-pyrido[2,3-d]pyrimidin-7-one]	200 nM	170 nM	61.7 nM	310 nM	710 nM
